Laboratory results taken from patent US10952438B2, “Pesticidal composition and method for controlling pests” (ISHIHARA SANGYO KAISHA, LTD., priority 2017, dated 2021).

How the values were obtained:
Type in all cases: in vivo
[1] = system: Comstock mealybug (Pseudococcus comstocki); assay: Test Example 2: same test as Test Example 1, different flonicamid concentration; details: 168 h, first instar larvae, 7 days after application, read-out: Corrected mortality
Source text: (§1) A plastic cup (diameter 9 cm, height: 4 cm) filled with tap water was covered with a plastic lid (diameter 9 cm, with a hole having a diameter of 0.5 cm at its center portion), and an absorbent cotton sheet (diameter 9 cm) as shown in FIG. 1 was placed thereon. The cut portion of the absorbent cotton sheet was put into the plastic cup through the hole at the center portion of the lid and dipped in the tap water. Filter paper (diameter 9 cm) was placed on the absorbent cotton sheet, and a kidney bean primary leaf was further placed thereon so that the abaxial side faced upward. The kidney bean primary leaf was covered with filter paper (diameter 9 cm, with a hole having a diameter of 3 cm at its center portion) to prepare a leaf disk.
Thirty first instar larvae of Comstock mealybug (Pseudococcus comstocki) were released on the hole at the center portion of the leaf disk, and the leaf disk was left at rest in a breeding room (25° C., humidity: 60%). Two days later, the number of surviving larvae in the leaf disk was examined, and then a chemical solution at predetermined concentrations of active ingredients was sprayed on the leaf disc by a rotary spraying apparatus (tower sprayers TS-301) in an application amount corresponding to 100 L/10 a, and the leaf disk was left at rest in the breeding room. Seven days after application, the number of surviving larvae was examined, and the difference with the number of surviving larvae before application was taken as the mortality. The same test was conducted using tap water as a negative control, the corrected mortality (%) was calculated in accordance with the formula 1, and the results are shown in Table 1. Further, in accordance with the Colby's formula, the theoretical value (%) was calculated based on the obtained corrected mortality and shown in brackets in Table 1. The composition of the present invention has a synergistic pesticidal effect when the corrected mortality is higher than the theoretical value by the Colby's formula. The test was conducted three times. […]

[2] = system: Comstock mealybug (Pseudococcus comstocki); assay: Test Example 3: same test as Test Example 1, different flonicamid and D-limonene concentrations; details: 168 h, first instar larvae, 7 days after application, read-out: Corrected mortality
Source text: as §1
(§2) Thirty first instar larvae of Comstock mealybug (Pseudococcus comstocki) were released on the hole at the center portion of the leaf disk, and the leaf disk was left at rest in a breeding room (25° C., humidity: 60%). Two days later, the number of surviving larvae in the leaf disk was examined, and then a chemical solution at predetermined concentrations of active ingredients was sprayed on the leaf disc by a rotary spraying apparatus (tower sprayers TS-301) in an application amount corresponding to 100 L/10 a, and the leaf disk was left at rest in the breeding room. Seven days after application, the number of surviving larvae was examined, and the difference with the number of surviving larvae before application was taken as the mortality. The same test was conducted using tap water as a negative control, the corrected mortality (%) was calculated in accordance with the formula 1, and the results are shown in Table 1. Further, in accordance with the Colby's formula, the theoretical value (%) was calculated based on the obtained corrected mortality and shown in brackets in Table 1. The composition of the present invention has a synergistic pesticidal effect when the corrected mortality is higher than the theoretical value by the Colby's formula. The test was conducted three times. Corrected mortality (%)=100×((morality in treated area−mortality in control area)/(100−mortality in control area)) Formula 1
The test was conducted in the same manner as in Test Example 1 except that the concentrations of flonicamid and D-limonene were different.

[3] = system: Comstock mealybug (Pseudococcus comstocki); assay: Test Example 1: test on effects against Comstock mealybug, leaf disk spray; details: foliar, 168 h, first instar larvae, 7 days after application, read-out: Corrected mortality
Source text: as §1, §2

C=C(C)[C@H]1CC=C(C)CC1 [D-Limonene, (4R)-p-menth-1,8-diene]
mortality at 720 ppm ([1]; D-limonene 720 ppm alone): 4.5%
mortality at 1440 ppm ([1]; D-limonene 1440 ppm alone): 21.3%
mortality at 180 ppm ([2]; D-limonene 180 ppm alone): 0%
mortality at 360 ppm ([2]; D-limonene 360 ppm alone): 35.1%
mortality at 720 ppm ([3]; D-limonene 720 ppm alone): 7.7%
mortality at 1440 ppm ([3]; D-limonene 1440 ppm alone): 27.7%

N#CCNC(=O)c1cnccc1C(F)(F)F [Flonicamid, N-cyanomethyl-4-trifluoromethyl-3-pyridinecarboxamide]
mortality at 160 ppm ([1]; flonicamid 160 ppm alone): 68.8%
mortality at 80 ppm ([2]; flonicamid 80 ppm alone): 25.5%
mortality at 160 ppm ([2]; flonicamid 160 ppm alone): 55%
mortality at 10 ppm ([3]; flonicamid 10 ppm alone): 7.9%
mortality at 20 ppm ([3]; flonicamid 20 ppm alone): 16.1%
